Reference: patent publication US20230416202A1, “Small Molecule Compounds and Compositions” (Telo Therapeutics, Inc., priority 2020, published 2023)

Assays:
[1] = Body weight in GBM orthotopic xenograft survival study; assay type: in vivo, mice; conditions: highest dosage group (50 mg/kg BID), first 3 dosing days
Protocol: (§1) For this study, treatment began on day 7 post tumor cell implant and ceased on day 20 for a total of 14 days of dosing. Compound 101 was formulated with Solutol, DMSO and water and administered by oral gavage twice daily (BID). The dosage groups were vehicle control, 50 mg/kg BID, 25 mg/kg BID, and 10 mg/kg BID. […] Tumor size was monitored following injection of luciferin (150 mg/kg i.p.) 1-2 times weekly by bioluminescence imaging (Xenogen IVIS Spectrum Imaging System). Animals were weighed three times per week, and daily after initial weight loss is observed.

wt TERT = test: HEK293T hTERT mRNA assay (qPCR); assay type: cell-based, human; conditions: HEK293 cells (wt TERT), 48 hours, class symbols
Protocol: (§2) HepG2 cells (hepatocyte carcinoma (HCC) cells; with mutated TERT) or HEK293T cells (with wild type (wt) TERT) were seeded at 4,000 cells/well in 96-well plates. The following day, test compounds were added to cells for at concentrations of 25 uM, 12.5 uM, 6.25 uM, 3.125 uM, 1.563 uM, 0.781 uM, 0.391 uM, 0.195 uM, 0.098 uM or vehicle control (0.1% DMSO). Each condition was tested in three replicate wells. 48 hours post drug addition, the cells were harvested for RNA using the 96-Magmax RNA Isolation kit (Cat. No. AM1830). RNA was converted to cDNA using the Superscript III First strand cDNA synthesis kit (Cat. No. 18080051). RNA and cDNA concentration and quality were determined using the NanoQuant nucleic acid quantification method. 500 ng cDNA from each sample was used to detect TERT mRNA via qPCR. GUSB was also measured as an internal control and fold change to vehicle control was determined using the delta CT method.

[2] = Body weight in HepG2 xenograft mice; assay type: in vivo; conditions: p.o, BID for 5 days
Protocol: (§3) HepG2 (Hepatocellular carcinoma cell line containing the C228T TERTp mutation) cells were implanted into the flanks of Athymic Nude-Foxn1nu mice. Once tumors reached 250-300 mm3 in size as measured by caliper, treatment of Compound 101 was initiated. Compound 101 was administered orally (P.O.) for 5 days BID at either 25 mg/kg, 50 mg/kg, or vehicle control (N=4 per group). Body weight and tumor size were measured on days 1, 3, and 5. Two hours after final dose administration, mice were sacrificed, and tumors extracted for RNA isolation and TERT mRNA expression analysis via RT-qPCR. Both TERT and GUSB were measured using SYBR green primers and relative TERT levels were analyzed using the delta delta CT method.

TERT [3] = test: TERT expression in GBM39 orthotopic xenograft tumors; assay type: in vivo, mice; conditions: 50, 100 or 200 mg/kg BID, oral gavage, 5 days, FIG. 3
Protocol: (§4) In this study, Compound 101 was dosed twice daily (BID) via oral gavage to mice with GBM39 orthotopic xenograft (GBM39 cells). Tumor size was measured via Bioluminescence imaging (BLI). BLI readings were taken on treatment day 1 and day 5. Tumors were also harvested for downstream RNA analysis.
(§5) For each dose group (N=6), the following steps were performed. Briefly, athymic nu/nu mice were injected intracranially with patient-derived Glioblastoma cells. Animals began treatment once tumor BLI levels reach the range of 1×10^8-5×10^8. A dosing solution of Compound 101 (50 mg/kd, 100 mg/kd, or 200 mg/kg) or vehicle were administered by oral gavage (P.O., 50-100 uL volume) for 5 days. The dosing solutions were prepared similar to the process in Example 4. Dosing was twice daily on days 1-4. On day 5 the mice received a single dose, prior to harvest. Three hours after the last dose, mice were sacrificed and their brains were harvested and processed for analysis. […] TERT expression was also found to be reduced in all three dose groups (FIG. 3).

[4] = tested on: GBM39 orthotopic xenograft; test: GBM39 orthotopic xenograft, tumor BLI; assay type: in vivo, mice; conditions: for tumor BLI change: 5 days
Protocol: as §4, §5
In a second study with Compound 101 in the GBM mice model, the 200 mg/kg dosing group was changed to a 100 mg/kg once daily dosing (QD). The baseline BLI readings were taken two days prior to 1st treatment.

Mutant TERT = test: HepG2 hTERT mRNA assay (qPCR); assay type: cell-based, human; conditions: Homo sapiens; HepG2 cells (mutated TERT), 48 hours, TERT mRNA via qPCR
Protocol: as §2

[5] = tested on: GBM39 cells orthotopic xenograft; test: GBM orthotopic xenograft survival study; assay type: in vivo, mice; conditions: oral gavage, 14 days of dosing
Protocol: GBM39 cells, a human PDX model of GBM, were selected for this study. GBM39 cells were stably transduced (MOI=3) with Firefly Luciferase Lentifect Purified Lentiviral Particles (Genecopoiea, #LPP-FLUC-Lv105) and were verified to be expressing luciferase stably and at similar levels 48 h pre-xenograft. A total of 1-4×10E4 luciferase-expressing PDX cells in 4 uL volume were injected into the right frontal cortex of athymic nu/nu mice (6-7-wk.-old, female). Animals were randomized into treatment groups and dosing initiated once tumors reach an average BLI of 1×10^8.
as §1

[6] = tested on: HepG2 subcutaneous tumor xenograft; test: HepG2 subcutaneous tumor xenograft, tumor volume; assay type: in vivo, mice; conditions: for Mean Tumor Volume: p.o, BID for 5 days
Protocol: The pharmacodynamic (PD) profiling of Compound 101 was determined in Athymic nude mice bearing subcutaneous tumor xenograft model.
as §3

TERT [7] = test: TERT mRNA expression (RT-qPCR) in HepG2 xenograft tumors; assay type: in vivo, mice; conditions: for TERT Expression (RT-qPCR) Mean Fold: p.o, BID for 5 days
Protocol: as §3

[8] = oral, 25 mg/kg and 50 mg/kg BID, 5 days (both dose levels)

For O=C(O)C[C@@H]1C[C@@H](c2ccc(C(F)(F)F)cc2)CN(Cc2ccc(C(F)(F)F)cc2)C1 [Compound 101, 2-((3S,5S)-1-(4-(trifluoromethyl)benzyl)-5-(4-(trifluoromethyl)phenyl)piperidin-3-yl)acetic acid], the body weight [1] was “mice losing weight”, the “wt TERT IC50 uM HEK293” value (wt TERT) was ““++”-IA” and the “% Mean body weight change” value ([2]; 25 mg/kg, DAY 1) was 0%. For the same compound, the “% Mean body weight change” value ([2]; 25 mg/kg, DAY 3) was −4.36%, the “% Mean body weight change” value ([2]; 25 mg/kg, DAY 5) was −3.65% and the “% Mean body weight change” value ([2]; 50 mg/kg, DAY 1) was 0%. For the same compound, the “% Mean body weight change” value ([2]; 50 mg/kg, DAY 3) was −11.09%, the “% Mean body weight change” value ([2]; 50 mg/kg, DAY 5) was −10.68% and the “TERT expression in tumor” value (TERT [3]) was “reduced”. For the same compound, the “tumor BLI change” value ([4]; 50, 100 or 200 mg/kg BID, oral gavage, FIG. 2) was “significant tumor reduction”, the tumor size ([4]; second study, 100 mg/kg once daily dosing (QD)) was “sufficient to reduce tumor size” and the “tumor BLI change” value ([4]; second study: 50 mg/kg BID, 100 mg/kg BID or 100 mg/kg QD, FIG. 4) was “significant tumor reduction”. For the same compound, the IC50 (Mutant TERT) was less than 500 nM, the “Median Survival” value ([5]; 20 mg/kg/day, bid (n = 10)) was 50 and the “Median Survival” value ([5]; 50 mg/kg/day, bid (n = 10)) was 62.5. For the same compound, the “Median Survival” value ([5]; 100 mg/kg/day, bid × 3 days, then 50 mg/kg/day, qd (n = 9)) was “Undefined”, the “Mean Tumor Volume” value ([6]; 25 mg/kg, Day 1) was 252.22 mm3 and the “Mean Tumor Volume” value ([6]; 25 mg/kg, Day 3) was 230.02 mm3. The “Mean Tumor Volume” value ([6]; 25 mg/kg, Day 5) was 197.97 mm3, the “Mean Tumor Volume” value ([6]; 50 mg/kg, Day 1) was 251.37 mm3 and the “Mean Tumor Volume” value ([6]; 50 mg/kg, Day 3) was 212.58 mm3. For the same compound, the “Mean Tumor Volume” value ([6]; 50 mg/kg, Day 5) was 168.34 mm3, the tumor volume change [6, 8] was “tumor regression” and the “TERT Expression (RT-qPCR) Mean Fold” value (TERT [7]; 25 mg/kg) was 0.21 Fold. The “TERT Expression (RT-qPCR) Mean Fold” value (TERT [7]; 50 mg/kg) was 0.19 Fold and the “TERT mRNA in tumor” value (TERT [7]; [8]) was “TERT mRNA reduction”.
